Data published in patent US20190062761A1, “ULTRASOUND METHOD” (INSTITUTE OF SCIENCE AND TECHNOLOGY AUSTRIA (IST AUSTRIA), priority 2016, published 2019).

Legend:
[1] = tested on: light-activated gene transcription plasmid pDAWN; experiment: Induction of mCherry expression by SCL and pDAWN in E. coli; assay type: cell-based
Protocol: (§1) For starting cultures, E. coli BL21 (DE) cells transformed with pDAWN were grown overnight (225 rpm, 37° C.) in LB medium (pH 7.0; Sigma) supplemented with 50 μg/ml kanamycin (Sigma). Cells were then diluted 100-fold in fresh LB medium (pH 8.0) and growth was allowed to reach OD600˜0.4 (7.3×10^7 CFU/ml) under non-inducing conditions (i.e. in the dark). For US experiments, 250 ml of these cultures were centrifuged (4700 rpm, 5 min) and resuspended in 200 ml M9 minimal medium (1×M9 salts, 2 mM MgSO4, 0.1 mM CaCl2, 0.4% glucose, buffered with 0.05 M Tris, pH 9.0). Each culture was treated with US for 3 h. After stimulation, aliquots (50 ml) were centrifuged, resuspended (in M9 minimal media) and incubated in 96-well plates overnight under non-inducing conditions (dark) to allow mCherry maturation.

M38K^Opto-mFGFR1 cells = experiment: EMT-like morphology changes (aspect ratio) in M38K Opto-mFGFR1 cells in response to luminol SCL; assay type: cell-based
Protocol: After additional 24 h, cells were photographed on the Nikon Ti300 microscope.

E. coli = conditions: treatment with US and luminol for 3 h (20 mM luminol, pH 9), M9 minimal media
Protocol: as §1
OD600 and mCherry fluorescence emission spectra (λex=543±10 nm, λem=575 to 695 nm in 10 nm increments) were measured with a (Biotek Synergy H1) microplate reader in a black 96-well flat-bottom plates (typical volume was 200 μl).

Compound: COc1ccc(-c2cn3c(=O)c(C)nc-3c[nH]2)cc1.Cl [MCLA, 6-(4-Methoxyphenyl)-2-methyl-3,7-dihydroimidazo[1,2-a]pyrazin-3-one Hydrochloride]
- induction of mCherry expression ([1]; MCLA-catalyzed SCL, pDAWN-V28I, 2 h US stimulation, 2 μM MCLA, pH 7): two

Compound: COc1cc(OC)cc(-c2cc3cnc(N)nc3nc2NC(=O)NC(C)(C)C)c1 [PD166866]
- effect of luminol SCL on cell morphology after pre-treatment with inhibitor (M38K^Opto-mFGFR1 cells; 10 μM for 1 h before US stimulation (585 kHz, 64% amplitude, 3 h)): abolished

Compound: Nc1cccc2c(=O)[nH][nH]c(=O)c12 [luminol, 5-Amino-2,3-dihydro-1,4-phthalazinedione]
- morphological changes in M38K^Opto-mFGFR1 cells (M38K^Opto-mFGFR1 cells; luminol SCL, two chambers configuration, 20 mM luminol, US 585 kHz, 64% amplitude, 3 h): induced epithelial-mesenchymal transition (EMT)-like morphological changes
- induction of mCherry production (increase compared to control experiments) ([1]; {}): ~5 fold
- reduction of E. coli viability indicators (OD600 and CFUs) (E. coli): ~50%
